Source: US7563805B2, “Tri-, tetra-substituted-3-aminopyrrolidine derivative” (Daiichi Pharmaceutical Co., Ltd., priority 2005, dated 2009)
In brackets after ≈: the same amount, converted by molar mass. Read-outs that look alike come from different tables or passages of the source.

What was measured:
S. aureus, 209P = experiment: antibacterial activity (MIC), standard method of Japanese Society of Chemotherapy
hERG K+ channel = hERG K+ channel (Homo sapiens, UniProt Q12809); experiment: hERG-K^+ channel blocking effect
Sequence of hERG K+ channel (Q12809 whole entry): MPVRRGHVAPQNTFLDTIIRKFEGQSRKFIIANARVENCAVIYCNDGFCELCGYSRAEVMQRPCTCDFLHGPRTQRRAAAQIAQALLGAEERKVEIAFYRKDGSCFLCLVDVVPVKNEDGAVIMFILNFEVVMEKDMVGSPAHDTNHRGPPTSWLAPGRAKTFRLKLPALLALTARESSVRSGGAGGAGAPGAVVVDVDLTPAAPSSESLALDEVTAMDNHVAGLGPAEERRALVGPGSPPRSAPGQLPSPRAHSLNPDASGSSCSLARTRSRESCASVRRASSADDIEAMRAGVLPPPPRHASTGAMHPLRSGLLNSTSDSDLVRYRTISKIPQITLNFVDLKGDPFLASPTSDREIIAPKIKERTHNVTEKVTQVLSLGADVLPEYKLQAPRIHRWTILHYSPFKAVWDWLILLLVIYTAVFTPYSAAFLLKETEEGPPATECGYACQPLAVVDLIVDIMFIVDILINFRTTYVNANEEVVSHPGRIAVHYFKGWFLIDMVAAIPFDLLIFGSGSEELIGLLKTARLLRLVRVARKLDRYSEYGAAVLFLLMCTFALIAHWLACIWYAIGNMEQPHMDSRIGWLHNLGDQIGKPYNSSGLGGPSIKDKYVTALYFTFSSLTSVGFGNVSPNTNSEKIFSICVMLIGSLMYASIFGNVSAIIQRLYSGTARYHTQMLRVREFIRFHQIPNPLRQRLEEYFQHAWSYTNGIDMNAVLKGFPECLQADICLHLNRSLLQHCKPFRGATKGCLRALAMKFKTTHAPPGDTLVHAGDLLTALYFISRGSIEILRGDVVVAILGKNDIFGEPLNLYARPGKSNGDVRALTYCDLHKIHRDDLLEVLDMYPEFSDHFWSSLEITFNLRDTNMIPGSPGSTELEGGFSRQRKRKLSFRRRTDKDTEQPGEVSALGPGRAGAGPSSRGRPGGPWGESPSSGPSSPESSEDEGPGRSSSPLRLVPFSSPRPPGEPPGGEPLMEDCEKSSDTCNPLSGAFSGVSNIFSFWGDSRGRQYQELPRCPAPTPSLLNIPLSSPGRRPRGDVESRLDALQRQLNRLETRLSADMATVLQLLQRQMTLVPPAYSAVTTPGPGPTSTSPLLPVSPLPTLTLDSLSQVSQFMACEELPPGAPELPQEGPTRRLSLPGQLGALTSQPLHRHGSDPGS

[1] = test system: S. pneumoniae, J24 (penicillin-intermediate resistant bacteria); experiment: antibacterial activity (MIC), standard method of Japanese Society of Chemotherapy
S. marscecens, 10100 = experiment: as above
E. coli NIHJ = experiment: as above
P. aeruginosa, 32104 = experiment: as above
[2] = test system: S. aureus, 87037 (LVFX-resistant MRSA); experiment: as above
S. epidermidis, 56500 = experiment: as above
P. aeruginosa, 32121 = experiment: as above
P. vulgaris, 08601 = experiment: as above
E. faecalis, ATCC 19433 = experiment: as above
[3] = Staphylococcus aureus, MRSA, S. aureus, 87037 (LVFX-resistant MRSA)
[4] = Staphylococcus epidermidis, 56500, S. epidermidis
[5] = Proteus vulgaris, 08601, P. vulgaris
[6] = Enterococcus faecalis, ATCC19433, E. faecalis

| Structure (SMILES) | melting point | MIC (S. aureus, 209P; Staphylococcus aureus) [µg/mL] | MIC ([1]; Streptococcus pneumoniae) [µg/mL] | MIC (S. marscecens, 10100) [µg/mL] | MIC (E. coli NIHJ; Escherichia coli) [µg/mL] | MIC (P. aeruginosa, 32104; Pseudomonas aeruginosa) [µg/mL] | MIC [2, 3] [µg/mL] | MIC (S. epidermidis, 56500; [4]) [µg/mL] | MIC (P. aeruginosa, 32121; Pseudomonas aeruginosa) [µg/mL] | MIC (P. vulgaris, 08601; [5]) [µg/mL] | MIC (E. faecalis, ATCC 19433; [6]) [µg/mL] | other results |
| --- | --- | --- | --- | --- | --- | --- | --- | --- | --- | --- | --- | --- |
| COc1c(N2CC(CF)C(C)(N)C2)c(F)cc2c(=O)c(C(=O)O)cn([C@@H]3C[C@@H]3F)c12 (single isomer, unassigned) [Example 8, 7-[(3R*,4S*)-3-Amino-4-fluoromethyl-3-methylpyrrolidin-1-yl]-6-fluoro-1-[(1R,2S)-2-fluorocyclopropyl]-8-methoxy-1,4-dihydro-4-oxoguinoline-3-carboxylic acid] | 186 to 189 °C | 0.025 (≈ 0.0588 µM) | 0.1 (≈ 0.235 µM) | 0.2 (≈ 0.47 µM) | 0.012 (≈ 0.0282 µM) | 0.78 (≈ 1.83 µM) | 0.78 (≈ 1.83 µM) | 0.1 (≈ 0.235 µM) | 0.2 (≈ 0.47 µM) | 0.025 (≈ 0.0588 µM) | 0.2 (≈ 0.47 µM) | inhibition at 30 µM (hERG K+ channel): 1.5 ± 1.8%; inhibition at 100 µM (hERG K+ channel): 2.1 ± 2.3%; inhibition at 300 µM (hERG K+ channel): 2.3 ± 7.3% |
| Cc1c(N2CC(F)[C@](C)(N)C2)c(F)cc2c(=O)c(C(=O)O)cn([C@@H]3C[C@@H]3F)c12 (single isomer, unassigned) [Example 27] | 215 to 217 °C | 0.012 (≈ 0.0304 µM) | 0.1 (≈ 0.253 µM) | 0.1 (≈ 0.253 µM) | 0.006 (≈ 0.0152 µM) | 0.39 (≈ 0.986 µM) | 0.39 (≈ 0.986 µM) | 0.05 (≈ 0.126 µM) | 0.1 (≈ 0.253 µM) | 0.006 (≈ 0.0152 µM) | 0.2 (≈ 0.506 µM) | inhibition at 30 µM (hERG K+ channel): -1.8 ± 6.8%; inhibition at 100 µM (hERG K+ channel): 0.6 ± 8%; inhibition at 300 µM (hERG K+ channel): 8.9 ± 11% |
| COc1c(N2CC(C)(N)C3(CC3)C2)c(F)cc2c(=O)c(C(=O)O)cn([C@@H]3C[C@@H]3F)c12 (stereo partly drawn) [Example 10, 7-(7-Amino-7-methyl-5-azaspiro[2.4]heptan-5-yl)-6-fluoro-1-[(1R,2S)-2-fluorocyclopropyl]-8-methoxy-1,4-dihydro-4-oxoguinoline-3-carboxylic acid] |  |  |  | 0.2 (≈ 0.477 µM) |  |  |  |  |  |  |  | MIC (S. aureus, 209P): 0.05 µg/mL (≈ 0.119 µM); MIC [1]: 0.39 µg/mL (≈ 0.93 µM); MIC (E. coli NIHJ; E. coli NIHJ): 0.025 µg/mL (≈ 0.0596 µM); MIC (P. aeruginosa, 32104; P. aeruginosa): 0.39 µg/mL (≈ 0.93 µM); MIC ([2]; S. aureus, 87037 (LVFX-resistant MRSA)): 1.56 µg/mL (≈ 3.72 µM); MIC (S. epidermidis, 56500; S. epidermidis): 0.2 µg/mL (≈ 0.477 µM); MIC (P. aeruginosa, 32121; P. aeruginosa): 0.2 µg/mL (≈ 0.477 µM); MIC (P. vulgaris, 08601; P. vulgaris): 0.05 µg/mL (≈ 0.119 µM); MIC (E. faecalis, ATCC 19433; E. faecalis): 0.78 µg/mL (≈ 1.86 µM) |
| C=C1CN(c2c(F)cc3c(=O)c(C(=O)O)cn([C@@H]4C[C@@H]4F)c3c2OC)C[C@@]1(C)N [Example 15, 7-[(3S)-3-Amino-3-methyl-4-methylenepyrrolidine-1-yl]-6-fluoro-1-[(1R,2S)-2-fluorocyclopropyl]-8-methoxy-1,4-dihydro-4-oxoquinoline-3-carboxylic acid] | 100 to 102 °C | 0.05 (≈ 0.123 µM) | 0.1 (≈ 0.247 µM) | 0.2 (≈ 0.493 µM) | 0.012 (≈ 0.0296 µM) | 0.39 (≈ 0.962 µM) | 0.78 (≈ 1.92 µM) | 0.1 (≈ 0.247 µM) | 0.2 (≈ 0.493 µM) | 0.025 (≈ 0.0617 µM) | 0.2 (≈ 0.493 µM) |  |
| C[C@H]1COc2c(N3CC(C)(N)C4(CC4)C3)c(F)cc3c(=O)c(C(=O)O)cn1c23 (stereo partly drawn) [Example 16, (3S)-10-(7-Amino-7-methyl-5-azaspiro[2.4]heptane-5-yl)-9-fluoro-2,3-dihydro-3-methyl-7-oxo-7H-pyrido[1,2,3-de][1,4]benzoxazine-6-carboxylic acid] | 268 to 270 °C | 0.025 (≈ 0.0645 µM) | 0.2 (≈ 0.516 µM) | 0.1 (≈ 0.258 µM) | 0.012 (≈ 0.031 µM) | 0.1 (≈ 0.258 µM) | 3.13 (≈ 8.08 µM) | 0.1 (≈ 0.258 µM) | 0.05 (≈ 0.129 µM) | 0.006 (≈ 0.0155 µM) | 0.39 (≈ 1.01 µM) |  |
| C=C1CN(c2c(F)cc3c(=O)c(C(=O)O)cn([C@@H]4C[C@@H]4F)c3c2OC)C[C@]1(C)N [Example 17, 7-[(3R)-3-Amino-3-methyl-4-methylenepyrrolidine-1-yl]-6-fluoro-1-[(1R,2S)-2-fluorocyclopropyl]-8-methoxy-1,4-dihydro-4-oxoquinoline-3-carboxylic acid] | 236 to 239 °C (dec.) | 0.025 (≈ 0.0617 µM) | 0.1 (≈ 0.247 µM) | 0.1 (≈ 0.247 µM) | 0.006 (≈ 0.0148 µM) | 0.39 (≈ 0.962 µM) | 0.39 (≈ 0.962 µM) | 0.1 (≈ 0.247 µM) | 0.1 (≈ 0.247 µM) | 0.012 (≈ 0.0296 µM) | 0.2 (≈ 0.493 µM) |  |
| COc1c(N2C[C@H](CF)[C@](C)(N)C2)c(F)cc2c(=O)c(C(=O)O)cn(C3CC3)c12 [Example 21, 7-[(3S,4S)-3-Amino-4-fluoromethyl-3-methylpyrrolidin-1-yl]-1-cyclopropyl-6-fluoro-8-methoxy-1,4-dihydro-4-oxoquinoline-3-carboxylic acid] | 226 to 229 °C | 0.025 (≈ 0.0614 µM) | 0.1 (≈ 0.245 µM) | 0.2 (≈ 0.491 µM) | 0.012 (≈ 0.0295 µM) | 0.78 (≈ 1.91 µM) | 0.78 (≈ 1.91 µM) | 0.1 (≈ 0.245 µM) | 0.2 (≈ 0.491 µM) | 0.05 (≈ 0.123 µM) | 0.2 (≈ 0.491 µM) |  |
| Cc1c(N2CC3(CC3)[C@](C)(N)C2)ccc2c(=O)c(C(=O)O)cn([C@@H]3C[C@@H]3F)c12 [Example 29, 7-[(7S)-7-Amino-7-methyl-5-azaspiro[2.4]heptan-5-yl]-1-[(1R,2S)-2-fluorocyclopropyl]-8-methyl-1,4-dihydro-4-oxoquinoline-3-carboxylic acid] | 157 to 159 °C | 0.05 (≈ 0.13 µM) | 0.39 (≈ 1.01 µM) | 0.2 (≈ 0.519 µM) | 0.05 (≈ 0.13 µM) | 0.2 (≈ 0.519 µM) | 3.13 (≈ 8.12 µM) | 0.2 (≈ 0.519 µM) | 0.1 (≈ 0.259 µM) | 0.025 (≈ 0.0649 µM) | 0.78 (≈ 2.02 µM) |  |
| Cc1c(N2CC3(CC3)[C@](C)(N)C2)ccc2c(=O)c(C(=O)O)cn(C3CC3)c12 [Example 30, 7-[(7S)-7-Amino-7-methyl-5-azaspiro[2.4]heptan-5-yl]-1-cyclopropyl-8-methyl-1,4-dihydro-4-oxoquinoline-3-carboxylic acid] | 227 to 230 °C | 0.05 (≈ 0.136 µM) | 0.2 (≈ 0.544 µM) | 0.1 (≈ 0.272 µM) | 0.006 (≈ 0.0163 µM) | 0.2 (≈ 0.544 µM) | 1.56 (≈ 4.25 µM) | 0.2 (≈ 0.544 µM) | 0.05 (≈ 0.136 µM) | 0.025 (≈ 0.068 µM) | 0.39 (≈ 1.06 µM) |  |
| COc1c(N2CCNC(C)C2)c(F)cc2c(=O)c(C(=O)O)cn(C3CC3)c12 (stereo not shown) [GTFX, gatifloxacin, reference compound] |  | 0.05 (≈ 0.133 µM) | 0.2 (≈ 0.533 µM) | 0.1 (≈ 0.266 µM) | 0.006 (≈ 0.016 µM) | 0.2 (≈ 0.533 µM) |  | 0.2 (≈ 0.533 µM) | 0.1 (≈ 0.266 µM) | 0.006 (≈ 0.016 µM) | 0.39 (≈ 1.04 µM) | inhibition at 30 µM (hERG K+ channel): 8.1 ± 6%; inhibition at 100 µM (hERG K+ channel): 17.6 ± 11.5%; inhibition at 300 µM (hERG K+ channel): 39 ± 10.8%; MIC ([2]; Staphylococcus aureus, MRSA): 1.56 µg/mL (≈ 4.16 µM) |
| C[C@H]1COc2c(N3CCN(C)CC3)c(F)cc3c(=O)c(C(=O)O)cn1c23 [LVFX, levofloxacin, reference compound] |  | 0.2 (≈ 0.553 µM) | 0.78 (≈ 2.16 µM) | 0.1 (≈ 0.277 µM) | 0.012 (≈ 0.0332 µM) | 0.2 (≈ 0.553 µM) | > 6.25 | 0.39 (≈ 1.08 µM) | 0.1 (≈ 0.277 µM) | 0.012 (≈ 0.0332 µM) | 0.78 (≈ 2.16 µM) |  |
